Data reported in patent US20030180396A1, “Method of effecting phosphorylation in eucaryotic cells using thiamine triphosphate” (INSTITUT PASTEUR, priority 1999, published 2003).
Entries after “also recorded” stand apart in the source; their conditions may differ. Like-named read-outs stand apart in the source and are kept apart here.

Columns and labels:
[1] = test system: TTP-dependent kinase(s) (TTP-kinase, TTP-43K-kinase); experiment: TTP-dependent phosphorylation of 43K rapsyn by endogenous kinase(s) in nAChR-rich postsynaptic membranes; assay type: biochemical, Torpedo marmorata; conditions: for IC50: FIG. 3A, preincubation with cold triphosphate, read-out: IC50, inhibition of TTP-dependent phosphorylation of 43K rapsyn; for Kd: read-out: KD (apparent dissociation constant) of 43K rapsyn phosphorylation
Protocol: (§1) nAChR-rich postsynaptic membranes (nAChR-membranes) were prepared from electric organs excised from freshly killed Torpedo marmorata (T.m.) (Biologie Marine, Arcachon) (3, 16).
(§2) [γ-^32P]-TTP (^32P-TTP) was synthesized (27). nAChR-membranes were phosphorylated with (7-8000 Ci/mol) ^32P-TTP or ^32P-ATP in 50 mM Tris-HCl pH 7.5, 5-15 mM MgCl2, 0.08% CHAPS, inhibitors of proteases at 4°-20° C. for 60-90 minutes. […] Coomassie blue staining was performed when necessary. Where specified, nAChR-membranes were treated with 5-20 mM diethylpyrocarbonate (DEPC.) (28) in 50 mM Na phosphate buffer pH 6.0 and 7.4 (20 min, 16° C.), prior to incubation with ^32P-TTP.
A purified extract containing the kinase responsible for the TTP dependent phosphorylation of histidine residues on rapsyn, is preincubated with increasing concentration of products inhibiting the enzymatic activity of said kinase (FIG. 3A).

[2] = test system: endogenous protein kinase A (PKA); experiment: ATP-dependent phosphorylation of 43K rapsyn in nAChR-rich postsynaptic membranes; assay type: biochemical, Torpedo marmorata
Protocol: as §1, §2

[3] = target: T1, Nucleoside diphosphate kinase (NDPK) (Dictyostelium discoideum, UniProt P22887); experiment: Phosphorylation of NDPK with 32P-ATP or 32P-TTP as phosphodonor; assay type: biochemical; conditions: data not shown
T1 sequence (P22887 1-155): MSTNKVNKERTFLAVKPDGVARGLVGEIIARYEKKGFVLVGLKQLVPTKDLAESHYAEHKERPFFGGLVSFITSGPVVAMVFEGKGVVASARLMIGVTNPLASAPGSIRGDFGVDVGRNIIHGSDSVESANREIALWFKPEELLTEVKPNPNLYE
Protocol: NDPK is a highly conserved enzyme which plays a key role in growth and metastasis control (47). As the enzyme autophosphorylates histidine and presents a broad specificity, phosphorylation was assayed with TTP.

[4] = test system: mouse brain membranes; conditions: FIG. 8
[5] = Chemical stability of the phosphate links of phosphorylated 43K rapsyn (TCA / KOH treatment); assay type: physicochemical, Torpedo marmorata; conditions: for P-aa stability (base): PVDF blot + base; for P-aa stability (acid): SDS-PAGE gel + acid
Protocol: For acid treatment, SDS-PAGE gels containing ^32P-ATP- or ^32P-TTP-treated membranes were cut and incubated with Tris buffer or 16% TCA at 90° C. (29, 30), washed, and analyzed. Equivalent amounts of 43K rapsyn were ensured by Coomassie blue staining. For base treatment, ^32P-labeled membranes were resolved by SDS-PAGE, electroblotted on polyvinylidene difluoride membrane (PVDF). Blots were dried at 55° C. to minimize protein loss, wet in methanol, washed with H2O, cut and incubated in water or 1N KOH at 46° C. and analyzed.

O=c1c(-c2ccc(O)cc2)coc2cc(O)cc(O)c12 [genisterin, genistein]
effect on TTP-dependent phosphorylation of 43K rapsyn / TTP-kinase activity (in words) [1]: did not drastically alter

[Mg+2] [Mg^2+]
effect on TTP-dependent phosphorylation of 43K rapsyn / TTP-kinase activity (in words) [1]: enhanced

CC1CNCCN1S(=O)(=O)c1cccc2cnccc12 (centres unmarked) [H7]
effect on TTP-dependent phosphorylation of 43K rapsyn / TTP-kinase activity (in words) [1]: did not drastically alter

Clc1ccc(C(c2ccc(Cl)cc2)n2cc[n+](CC(OCc3ccc(Cl)cc3Cl)c3ccc(Cl)cc3Cl)c2)cc1 (centres unmarked) [calmidazolium]
effect on TTP-dependent phosphorylation of 43K rapsyn / TTP-kinase activity (in words) [1]: did not drastically alter

COc1ccc(C[C@H]2NC[C@H](O)[C@H]2OC(C)=O)cc1 [anisomycin]
effect on TTP-dependent phosphorylation of 43K rapsyn / TTP-kinase activity (in words) [1]: did not drastically alter

O=S(=O)(NCCNC/C=C/c1ccc(Br)cc1)c1cccc2cnccc12 [H89]
effect on TTP-dependent phosphorylation of 43K rapsyn / TTP-kinase activity (in words) [1]: did not drastically alter

Nc1ncnc2c1ncn2[C@@H]1O[C@H](COP(=O)(O)OP(=O)(O)O[32P](=O)(O)O)[C@@H](O)[C@H]1O [^32P-ATP, [γ-^32P]-ATP, reference compound]
concentration saturating 43K rapsyn phosphorylation ([2]; not yet saturated): > 200 µM | phosphorylation of NDPK by the phosphodonor [3]: strongly phosphorylated

Nc1ncnc2c1ncn2[C@@H]1O[C@H](COP(=O)(O)OP(=O)(O)OP(=O)(O)O)[C@@H](O)[C@H]1O [ATP, adenosine triphosphate]
effect on 32P-ATP-dependent 43K rapsyn phosphorylation (in words) [2]: specifically inhibited | effect on TTP-dependent phosphorylation of 43K rapsyn / TTP-kinase activity (in words) [1]: specifically inhibited | IC50 [1]: ~500 µM

CCCCCCCCCCCCCC(=O)O[C@@H]1[C@@H](C)[C@@]2(O)[C@@H](C=C(CO)C[C@]3(O)C(=O)C(C)=C[C@@H]23)[C@@H]2C(C)(C)[C@]12OC(C)=O [TPA, phorbol-12-myristate-13-acetate]
effect on TTP-dependent phosphorylation of 43K rapsyn / TTP-kinase activity (in words) [1]: did not drastically alter

CCCCCCOC(=O)[C@]1(O)C[C@@H]2O[C@@]1(C)n1c3ccccc3c3c4c(c5c6ccccc6n2c5c31)C(=O)NC4 [KT5720]
effect on TTP-dependent phosphorylation of 43K rapsyn / TTP-kinase activity (in words) [1]: did not drastically alter

CN[C@@H]1C[C@H]2O[C@@](C)([C@@H]1OC)n1c3ccccc3c3c4c(c5c6ccccc6n2c5c31)C(=O)NC4 [staurosporine]
effect on TTP-dependent phosphorylation of 43K rapsyn / TTP-kinase activity (in words) [1]: did not drastically alter

calphostin
effect on TTP-dependent phosphorylation of 43K rapsyn / TTP-kinase activity (in words) [1]: did not drastically alter

thiamine triphosphate [TTP]
proteins phosphorylated in mouse brain membranes [4]: phosphorylated very few | effect on 32P-ATP-dependent 43K rapsyn phosphorylation (in words) [2]: specifically inhibited | effect on TTP-dependent phosphorylation of 43K rapsyn / TTP-kinase activity (in words) [1]: specifically inhibited | IC50 [1]: ~40 µM | Kd ([1]; FIG. 3C, dose dependent and saturable): 5 to 10 µM | Kd ([1]; one membrane preparation): ~25 µM

CN(C)CCCn1cc(C2=C(c3c[nH]c4ccccc34)C(=O)NC2=O)c2ccccc21 [GFX, bisindolylmaleimide I]
effect on TTP-dependent phosphorylation of 43K rapsyn / TTP-kinase activity (in words) [1]: did not drastically alter

[Zn+2] [Zn^2+]
effect on TTP-dependent phosphorylation of 43K rapsyn / TTP-kinase activity (in words) [1]: inhibited; also recorded: prevented | % inhibition of TTP-dependent phosphorylation of 43K rapsyn ([1]; 0.5-3 mM Zn2+, 8 μM 32P-TTP, Mg2+ independent): ~70%

TNF-α
effect on TTP-dependent phosphorylation of 43K rapsyn / TTP-kinase activity (in words) [1]: did not drastically alter

Nc1nc2c(ncn2[C@@H]2O[C@@H]3COP(=O)(O)O[C@H]3[C@H]2O)c(=O)[nH]1 [cGMP]
effect on TTP-dependent phosphorylation of 43K rapsyn / TTP-kinase activity (in words) [1]: did not drastically alter

Nc1nc2c(ncn2[C@@H]2O[C@H](COP(=O)(O)OP(=O)(O)OP(=O)(O)O)[C@@H](O)[C@H]2O)c(=O)[nH]1 [GTP]
IC50 [1]: ~1000 µM

Nc1ncnc2c1nc(Sc1ccc(Cl)cc1)n2[C@@H]1O[C@@H]2COP(=O)([O-])O[C@H]2[C@H]1O.[Na+] [8-CPT-cAMP, Adenosine 3′-5′-cyclic monophosphate, 8-(4-Chlorophenylthio)-sodium salt]
effect on TTP-dependent phosphorylation of 43K rapsyn / TTP-kinase activity (in words) [1]: did not drastically alter

Nc1ccn([C@@H]2O[C@H](COP(=O)(O)OP(=O)(O)OP(=O)(O)O)[C@@H](O)[C@H]2O)c(=O)n1 [CTP]
effect on TTP-dependent phosphorylation of 43K rapsyn / TTP-kinase activity (in words) [1]: inhibits poorly

CN([C@@H](Cc1ccc(OS(=O)(=O)c2cccc3cnccc23)cc1)C(=O)N1CCN(c2ccccc2)CC1)S(=O)(=O)c1cccc2cnccc12 [KN62]
effect on TTP-dependent phosphorylation of 43K rapsyn / TTP-kinase activity (in words) [1]: did not drastically alter

O[C@@H](CS)[C@@H](O)CS [DTT]
effect on TTP-dependent phosphorylation of 43K rapsyn / TTP-kinase activity (in words) [1]: partially inhibited | % inhibition of TTP-kinase activity ([1]; 10 mM): 30-40%

Cc1ncc(C[n+]2csc(CCOP(=O)(O)OP(=O)(O)O[32P](=O)([O-])O)c2C)c(N)n1 [^32P-TTP, [γ-^32P]-TTP]
concentration saturating 43K rapsyn phosphorylation ([1]; FIG. 3C): 25 to 50 µM | phosphorylation of NDPK by the phosphodonor [3]: not

O=S(=O)(c1cccc2c(I)cccc12)N1CCCNCC1 [ML7]
effect on TTP-dependent phosphorylation of 43K rapsyn / TTP-kinase activity (in words) [1]: did not drastically alter

CCOC(=O)OC(=O)OCC [DEPC, diethylpyrocarbonate]
43K rapsyn phosphorylation, % 32P ([1]; membranes pretreated with 5-20 mM DEPC, versus 100±19% in mock membranes): 20±2%

B1: 43K-rapsyn/ATP: 43K rapsyn phosphorylated with ^32P-ATP (protein, UniProt Q13702 2-412, looked up)
43 kDa receptor-associated …: GQDQTKQQIEKGLQLYQSNQTEKALQVWTKVLEKSSDLMGRFRVLGCLVTAHSEMGRYKEMLKFAVVQIDTARELEDADFLLESYLNLARSNEKLCEFHKTISYCKTCLGLPGTRAGAQLGGQVSLSMGNAFLGLSVFQKALESFEKALRYAHNNDDAMLECRVCCSLGSFYAQVKDYEKALFFPCKAAELVNNYGKGWSLKYRAMSQYHMAVAYRLLGRLGSAMECCEESMKIALQHGDRPLQALCLLCFADIHRSRGDLETAFPRYDSAMSIMTEIGNRLGQVQALLGVAKCWVARKALDKALDAIERAQDLAEEVGNKLSQLKLHCLSESIYRSKGLQRELRAHVVRFHECVEETELYCGLCGESIGEKNSRLQALPCSHIFHLRCLQNNGTRSCPNCRRSSMKPGFV
modifications: 32P-phosphorylated (ATP)
notes: 43K rapsyn phosphorylated with ^32P-ATP
P-aa stability (base) [5]: base-labile | P-aa stability (base) ([5]; listed as ATP-^32P-43K rapsyn): alkaline labile | % 32P remaining ([5]; PVDF blot, 1 N KOH 46° C. 40 min, relative to control): 41 ± 1% | % 32P remaining ([5]; PVDF blot, 1 N KOH 46° C. 120 min, relative to control): 18 ± 2% | % 32P remaining ([5]; PVDF blot, 1 N KOH 46° C. 120 min, relative to control, listed as ATP-^32P-43K rapsyn): 18±2% | P-aa stability (acid) [5]: acid-stable | P-aa stability (acid) ([5]; listed as ATP-^32P-43K rapsyn): acid stable | % 32P remaining ([5]; SDS-PAGE gel, 16% TCA, 90° C. 5 min, relative to control): 79 ± 5% | % 32P remaining ([5]; SDS-PAGE gel, 16% TCA, 90° C. 5 min, relative to control, listed as ATP-^32P-43K rapsyn): 79±5% | % 32P remaining ([5]; SDS-PAGE gel, 16% TCA, 90° C. 10 min, relative to control): 49 ± 9% | % 32P remaining ([5]; SDS-PAGE gel, 16% TCA, 90° C. 10 min, relative to control, listed as ATP-^32P-43K rapsyn): 49±9% | Paa/pH-stability ([5]; putative Paa listed in both acid- and base-stability analysis (ref. 45)): P-Ser and/or P-Thr

B2: 43K-rapsyn/TTP: 43K rapsyn phosphorylated with ^32P-TTP (protein, UniProt Q13702 2-412, looked up)
43 kDa receptor-associated …: GQDQTKQQIEKGLQLYQSNQTEKALQVWTKVLEKSSDLMGRFRVLGCLVTAHSEMGRYKEMLKFAVVQIDTARELEDADFLLESYLNLARSNEKLCEFHKTISYCKTCLGLPGTRAGAQLGGQVSLSMGNAFLGLSVFQKALESFEKALRYAHNNDDAMLECRVCCSLGSFYAQVKDYEKALFFPCKAAELVNNYGKGWSLKYRAMSQYHMAVAYRLLGRLGSAMECCEESMKIALQHGDRPLQALCLLCFADIHRSRGDLETAFPRYDSAMSIMTEIGNRLGQVQALLGVAKCWVARKALDKALDAIERAQDLAEEVGNKLSQLKLHCLSESIYRSKGLQRELRAHVVRFHECVEETELYCGLCGESIGEKNSRLQALPCSHIFHLRCLQNNGTRSCPNCRRSSMKPGFV
modifications: 32P-phosphorylated (TTP)
notes: 43K rapsyn phosphorylated with ^32P-TTP
Paa/pH-stability [5]: P-His and/or P-Lys | % 32P remaining ([5]; 40 min): 96 ± 3%
